Results: ChEMBL document CHEMBL4418497, “Compositions and methods relating to inhibiting serine hyrdoxymethyltransferase 2 activity” (2016)

target: T1, Serine hydroxymethyltransferase, mitochondrial (Homo sapiens, UniProt P34897); assay: Inhibition of His-tagged human recombinant SHMT2 expressed in Escherichia coli BLR(DE3) assessed as reduction in NADPH level using L-serine, THF and NADP+ incubated for 5 mins by SHMT2-MTHFD coupled reaction based fluorescence assay; conditions: read-out: IC50
T1 sequence (P34897 whole entry): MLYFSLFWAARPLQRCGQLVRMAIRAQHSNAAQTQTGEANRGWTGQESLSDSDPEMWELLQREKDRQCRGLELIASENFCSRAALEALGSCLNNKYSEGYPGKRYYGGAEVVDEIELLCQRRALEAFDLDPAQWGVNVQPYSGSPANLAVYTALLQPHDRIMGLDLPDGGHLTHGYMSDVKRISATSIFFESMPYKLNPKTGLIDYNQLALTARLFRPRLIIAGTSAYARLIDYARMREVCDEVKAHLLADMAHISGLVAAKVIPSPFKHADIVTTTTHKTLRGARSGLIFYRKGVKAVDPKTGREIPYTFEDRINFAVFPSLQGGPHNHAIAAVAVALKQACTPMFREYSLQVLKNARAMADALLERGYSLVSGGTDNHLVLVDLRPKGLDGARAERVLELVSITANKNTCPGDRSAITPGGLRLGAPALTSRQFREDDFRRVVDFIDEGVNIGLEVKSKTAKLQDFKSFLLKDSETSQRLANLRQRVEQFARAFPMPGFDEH

| Compound | IC50 [µM] |
| --- | --- |
| O=C(Nc1ccc2c(c1)OCCO2)N1CCc2c([nH]c3ccccc23)C1c1ccccc1F (stereo not drawn) | 4.79 |
| COc1ccc(OC)c(NS(=O)(=O)c2ccc3c(c2)S(=O)(=O)NC=N3)c1 | 4.07 |
| COc1ccc(OC)c(NC(=O)CSc2nc3ncccc3o2)c1 | 2.14 |
| COc1ccc(NCc2cccn2-c2nnc(N3CCCCC3)s2)cc1OC | 3.39 |
| Cc1cc2nc(CSc3nc4ccc(NC(=O)CCC5CCCC5)cc4s3)cc(=O)n2o1 | 9.55 |
| CC(C)Cn1cc(NC(=O)N(Cc2ccco2)C2CCCCC2C)c2ccccc2c1=O (stereo not drawn) | 6.31 |
| COc1ccc(Nc2nc(Nc3ccccc3)c3cnn(C)c3n2)c(OC)c1 | 3.31 |
| CCC(Sc1nc2ncccc2o1)C(=O)Nc1c(C)cc(C)cc1C (stereo not drawn) | 2.51 |
| COc1c(C)cnc(CSc2nc3ncccc3o2)c1C | 4.07 |
| CC(=O)Oc1cc2c(C(=O)NCC3CCCO3)c(C)oc2c2ccccc12 (stereo not drawn) | 3.72 |
| CC(C)Cn1cc(NC(=O)Nc2ccc(Cl)cn2)c2ccccc2c1=O | 3.8 |
| O=C(Nc1cc(F)c2nc(N3CCOCC3)ccc2c1)C1CCC1 | 1.55 |
| Cc1c(C(=O)N2CCOCC2)oc2c1-c1nn(CC(=O)NC3CCCC(C)C3C)cc1CC2 (stereo not drawn) | 2.69 |
| CCOc1cc(-c2nnc3[nH]c(=O)n(C)c(=O)c3n2)ccc1OC(C)C | 0.69 |
| Cc1cc(C)n(-c2nnc(Nc3ccc4c(c3)OCCO4)c3ccccc23)n1 | 2.19 |
| CC(C)Cn1cc(NC(=O)NC(C)c2ccccc2)c2ccccc2c1=O (stereo not drawn) | 2.75 |
| COCCCNc1nc(Nc2ccc(OC)cc2)c2cnn(C)c2n1 | 2.34 |
| O=C(Nc1cc(F)c2nc(N3CCOCC3)ccc2c1)C1CC1 | 1.17 |
| COc1ccc(OC)c(NC(=O)N2CCN(S(=O)(=O)c3ccc4c(ccn4C)c3)CC2)c1 | 3.24 |
| CCC(C)NC(=O)Nc1cn(CC(C)C)c(=O)c2ccccc12 (stereo not drawn) | 2.34 |
| COc1ccc(Cl)cc1N(C)C(=O)Nc1cn(C)c(=O)c2ccccc12 | 6.92 |
| COc1cc(NC2=C(c3ccccc3)C(=O)c3ccccc32)cc(OC)c1 | 11.5 |

| Compound | IC50 [µM] |
| --- | --- |
| CCOc1ccc(C2CC(=O)N3CN(c4ccc(OCC)cc4)CSC3=C2C#N)cc1 (stereo not drawn) | 10.5 |
| CC(C)Cn1cc(NC(=O)NC2CCCCC2)c2ccccc2c1=O | 1.74 |
| COc1cc(NC(=O)N2CCSc3ncccc32)cc(OC)c1 | 2.57 |
| Cn1cc(NC(=O)N2CCCCC2)c2ccccc2c1=O | 9.33 |
| COc1cc(NC(=O)C2=Cc3sc(C)c(C)c3CS2)cc(OC)c1 | 6.76 |
| CCN(CC)S(=O)(=O)c1ccc(NC(=O)Nc2cn(CC(C)C)c(=O)c3ccccc23)cc1 | 3.72 |
| CCOC(=O)CSc1nc2ccc(N)cc2s1 | 0.71 |
| Cn1cc(NC(=O)NCC2COc3ccccc3O2)c2ccccc2c1=O (stereo not drawn) | 4.68 |
| COc1ccc(Nc2nc(NCCO)nc3c2cnn3C)cc1 | 1.86 |
| O=C1CN(C(=O)COc2cccc3ccccc23)c2ccccc2N1 | 2.34 |
| CC(C)Cn1cc(NC(=O)N2CCCc3ccccc32)c2ccccc2c1=O | 3.02 |
| CCOC(=O)C1CCCN(c2cc(C(=O)O)c3cc(N)ccc3n2)C1 (stereo not drawn) | 5.5 |
| CC(C)Cn1cc(NC(=O)Nc2ccccc2)c2ccccc2c1=O | 2.4 |
| CC(C)Cn1cc(NC(=O)NCCc2ccsc2)c2ccccc2c1=O | 1.66 |
| COc1ccc(OC)c(Nc2c(-c3cc(C)c(C)cc3C)c(=O)c2=O)c1 | 10 |
| CCNc1nc2[nH]c(=O)cc(O)c2s1 | 1.91 |
| CC(C)NC(=O)N1CCC2(CC1)Nc1cc(F)ccc1-n1cccc12 | 9.77 |
| COc1ccc2nc(NC(=O)Nc3cn(CC(C)C)c(=O)c4ccccc34)sc2c1 | 2.04 |
| Cn1nc(C(=O)N2CC=C(c3ccccc3)CC2)c2c1-c1ccsc1CC2 | 0.85 |
| O=C(Cc1cccs1)Nc1cc(F)c2nc(N3CCOCC3)ccc2c1 | 4.79 |
| CC(C)Cn1cc(NC(=O)N2CCC(C(N)=O)(N3CCCCC3)CC2)c2ccccc2c1=O | 2.51 |
| O=C(CSc1nc2ncccc2o1)Nc1ccc(S(=O)(=O)NC2CCCCC2)cc1 | 3.02 |

| Compound | IC50 [µM] |
| --- | --- |
| COc1cc(OC)c(NC(=O)NCCC2=CSC3CC(C)CCC23)cc1Cl (stereo not drawn) | 7.08 |
| CC(C)Cn1cc(NC(=O)Nc2cccc(F)c2)c2ccccc2c1=O | 2.24 |
| CCCNC(=O)Nc1cn(CC(C)C)c(=O)c2ccccc12 | 2.14 |
| CCOc1ccc(Nc2ncnc3sc(C(=O)O)c(C)c23)cc1 | 9.33 |
| COc1ccc(Nc2nnc(-n3nc(C)cc3C)c3ccccc23)c(OC)c1 | 3.47 |
| Cn1cnc2cc(NCc3ccco3)ccc21 | 2.04 |
| CC(C)Cn1cc(NC(=O)N2CCN(C(=O)c3ccco3)CC2)c2ccccc2c1=O | 4.57 |
| CCOc1ccc2nc(NC(=O)CSc3nc4ncccc4o3)sc2c1 | 4.37 |
| CCOC(=O)c1c(C)oc2c1c1c(c3ccccc32)OCN(CCCC(=O)O)C1 | 1.35 |
| CN1CCN(CCCNC(=O)c2ccc(N3CCSc4ncccc43)s2)CC1 | 3.8 |
| CC(C)Cn1cc(NC(=O)NCCCN2CCCC(C)C2)c2ccccc2c1=O (stereo not drawn) | 2.45 |
| O=C(Nc1cccc2c1CCCC2)N1CCSc2ncccc21 | 2.34 |
| C=CCn1c(=O)sc2cc(NC(=O)Cc3ccc(F)cc3)ccc21 | 10.2 |
| CCC1=NN(c2ccccc2)C(=O)C1 | 8.51 |
| COc1cc(OC)c(NC(=O)N2CCN3CCCCC3C2)cc1Cl (stereo not drawn) | 2.69 |
| CN1CCc2nc3sc(C(=O)c4ccc(Cl)cc4)c(N)c3cc2C1 | 3.89 |
| COc1cc(NC(=O)C2CCC2)cc2sc(NS(=O)(=O)c3ccccc3)nc12 | 8.13 |
| Cn1cc(NC(=O)NCCN2CCOCC2)c2ccccc2c1=O | 6.76 |
| Cc1ccc2c(c1)c1c(n2CC(O)CNCCO)C(=O)CCC1 (stereo not drawn) | 5.01 |
| O=C(CSc1nc2ncccc2o1)Nc1ccc(S(=O)(=O)Nc2ccc(F)cc2)cc1 | 2.75 |
| COc1ccc(NC(=O)N2CCSc3ccccc32)cc1OC | 7.08 |
| CC(C)CC(=O)Nc1cc(F)c2nc(N3CCOCC3)ccc2c1 | 2.57 |

| Compound | IC50 [µM] |
| --- | --- |
| CC(C)Cn1cc(NC(=O)Nc2ccccn2)c2ccccc2c1=O | 3.31 |
| Nc1ncccc1NC(=O)CCC(=O)O | 4.47 |
| CNc1nc(Nc2ccc(OC)cc2)c2cnn(C)c2n1 | 13.8 |
| Cc1ccc(-c2cc(Nc3cccc4cccnc34)nc(C)n2)cc1 | 1.51 |
| CCC1c2ccc(C)n2CCN1C(=O)Nc1cc(OC)cc(OC)c1 (stereo not drawn) | 7.94 |
| COc1cc(C2CC(=O)N3CN(C4CCCCC4)CSC3=C2C#N)ccc1O (stereo not drawn) | 4.37 |
| COc1cc(NC(=O)n2ncc3cc(Cl)ccc32)cc(OC)c1 | 11.8 |
| CC(C)Cn1cc(NC(=O)N(Cc2ccco2)CC2CCCO2)c2ccccc2c1=O (stereo not drawn) | 3.89 |
| O=C(CSc1nc2ncccc2o1)Nc1ccc(Br)cc1F | 1.82 |
| Cc1c(C(=O)N2CCOCC2)oc2c1-c1nn(CC(=O)NC3CCCCC3C)cc1CC2 (stereo not drawn) | 3.16 |
| COc1cc(OC)c(NC(=O)N2CCC3(CC2)Nc2cc(F)ccc2-n2cccc23)cc1Cl | 4.17 |
| CCOC(=O)c1nc(Nc2cc(OC)ccc2OC)c2ccccc2n1 | 14.1 |
| COc1ccc(Nc2nnc(-n3nc(C)cc3C)c3ccccc23)cc1OC | 8.32 |
| CC(C)Cn1cc(NC(=O)NCC2CCN(CCc3cccs3)CC2)c2ccccc2c1=O | 3.24 |
| O=C(CSc1nc2ncccc2o1)Nc1ccc(S(=O)(=O)N2CCOCC2)cc1 | 2.63 |
| COC(=O)c1sc(=S)n(-c2ccc3c(c2)OCO3)c1N | 2.95 |
| CCC(CC)C(=O)Nc1cc(F)c2nc(N3CCOCC3)ccc2c1 | 5.13 |
| CN(C)c1ccc(NC(=O)C2CC=CCC2C(=O)O)cc1 (stereo not drawn) | 4.79 |
| CC(=O)Nc1ncc2c(n1)CC(c1ccco1)CC2=O (stereo not drawn) | 4.57 |
| CC1=NC2c3c(oc(C(=O)NC4CCCC4)c3C)CCC2S1 (stereo not drawn) | 4.37 |
| Cc1nc(SCC(=O)Nc2cccc3nsnc23)oc1C | 2.51 |
| CC(C)Cn1cc(NC(=O)NCCN2CCN(C)CC2)c2ccccc2c1=O | 2.45 |

| Compound | IC50 [µM] |
| --- | --- |
| COc1ccc(NS(=O)(=O)c2cc(Br)cnc2N)cc1OC | 7.76 |
| CC(C)CCNC(=O)CSc1nc2ncccc2o1 | 2.51 |
| CCCN1CCN(CCCNC(=O)c2oc3c(c2C)-c2[nH]ncc2CC3)CC1 | 5.13 |
| CC(C)Cn1cc(NC(=O)NC2CCCC2)c2ccccc2c1=O | 2.24 |
| CCOC(=O)c1c(S(=O)(=O)Nc2ccc(OC)c(OC)c2)c(C)n(C)c1C | 8.13 |
| COc1ccc(N2C(=O)c3cccnc3C2Nc2ccc(OC)c(OC)c2)cc1 (stereo not drawn) | 2.95 |
| CCC1c2ccc(C)n2CCN1C(=O)Nc1cc(OC)ccc1OC (stereo not drawn) | 6.31 |
| O=C(Nc1ccc(Br)cc1F)N1CCSc2ncccc21 | 7.59 |
| COc1cccc(C2CC(=O)N3CN(c4ccc(OC)cc4OC)CSC3=C2C#N)c1 (stereo not drawn) | 4.37 |
| CC1=NC2c3c(oc(C(=O)NCC4CCCO4)c3C)CCC2S1 (stereo not drawn) | 4.07 |
| Cc1ccc2oc(SCC(=O)Nc3ccc(S(=O)(=O)N4CCCC4)cc3)nc2n1 | 11.8 |
| Cc1ccc2oc(SCC(=O)Nc3cccc(N4CCCC4=O)c3)nc2n1 | 4.47 |
| CCC(CC)n1nc(O)c2c(C)cc(=O)[nH]c21 | 7.41 |
| CCCCCC(C)n1nc(O)c2c(C)cc(=O)[nH]c21 (stereo not drawn) | 7.08 |
| Fc1ccc(NCc2ccc3nccnc3c2)c(F)c1 | 2.75 |
| CC(C)Cn1cc(NC(=O)NC(c2cccs2)C(C)C)c2ccccc2c1=O (stereo not drawn) | 4.07 |
| COc1ccc(OC)c(NC2c3ncccc3C(=O)N2c2ccccc2)c1 (stereo not drawn) | 15.5 |
| CC(C)Cn1cc(NC(=O)NCCN2CCC(C)CC2)c2ccccc2c1=O | 3.8 |
| COCCN1CCn2c(nc3cc(NC(=O)NC4CCCCC4)ccc32)C1 | 5.13 |
| COc1ccc(Cl)cc1NC(=O)N1CC2CCCN2c2ccccc21 (stereo not drawn) | 2 |
